The text below walks through data of patent US3984548A, “Substituted pyrido[1,2,3,-de]-1,4-benzoxazines as bactericides” (Riker Laboratories, Inc., priority 1974, dated 1976).

Common to all, as to format: cell-based
Set-up in all cases: key: +: active; -: inactive
Details in all cases: agar plates, 1 to 100 milligrams/liter

One assay deals with Bacillus Subtilus. Put plainly: standard plate dilution method, Bacillus subtilus. How it is done:
(§1) The culture medium employed permits susceptibility testing of fastidious microorganisms towards antibiotics, sulfonamides and other chemotherapeutic agents. Tryptone soy agar (oxoid) of the following composition is the culture medium. In the test procedure, the amount of a compound required to give complete inhibition or no inhibition of the microbial growth on the agar plates was determined. The compound selected for evaluation is added to the agar medium to give concentrations of one, ten and one hundred milligrams per liter. A series of plates with these concentrations is prepared. Plates containing agar alone are included as controls. Ten percent horse serum is added to one series of such plates. Aliquots of broth culture of each of nine species of microorganisms are innoculated onto the agar plates containing the various compound concentrations and onto the control plates. The plates are incubated at 37° C. in a 10 percent carbon dioxide atmosphere for 18 to 25 hours. The microbial growth on each plate is read visually, and minimal inhibitory concentrations are recorded.

In the next assay the test system is Herellea vaginicola. Put plainly: standard plate dilution method, Herellea vaginicola. The procedure:
as §1

The next assay concerns Streptococcus Sp. The experiment in a line: standard plate dilution method, Streptococcus sp. How it is done: as §1
The subject of the next assay is Staphylococcus aureus. Put plainly: standard plate dilution method, Staphylococcus aureus. How it is done: as §1
In another assay the test system is Escherichia coli. The experiment in a line: standard plate dilution method, Escherichia coli. How it is done: as §1
The next assay concerns Mima polymorpha. The experiment in a line: standard plate dilution method, Mima polymorpha. The procedure: as §1
For a further assay, the system named is Pseudmonas aeruginosa. Put plainly: standard plate dilution method, Pseudomonas aeruginosa. How it is done: as §1

With `Cc1c(Cl)cc2c(=O)c(C(=O)O)cn3c2c1OCC3C` (stereo not drawn) [Example 34 (acid)], the “Microorganism BS (growth inhibition)” value with Bacillus Subtilus is on record as “+”. In addition, the “Microorganism HV (growth inhibition)” value in the assay on Herellea vaginicola is on record as “+”. For the same compound, in the assay on Streptococcus Sp, the “Microorganism SS (growth inhibition)” value was “+”. Moreover, the “Microorganism SA (growth inhibition)” value in the assay with Staphylococcus aureus is “+”. Besides, the “Microorganism EC (growth inhibition)” value with Escherichia coli was “+”. Also, the “Microorganism MP (growth inhibition)” value with Mima polymorpha was “+”. For the same compound, the “Microorganism PA (growth inhibition)” value in the assay with Pseudmonas aeruginosa was “+”.

In the case of `CC1COc2ccc(F)c3c(=O)c(C(=O)O)cn1c23` (stereo not drawn) [Example 25, 8-fluoro-2,3-dihydro-3-methyl-7-oxo-7H-pyrido[1,2,3-de]-1,4-benzoxazine-6-carboxylic acid], the “Microorganism BS (growth inhibition)” value in the assay on Bacillus Subtilus is recorded as “+”. For the same compound, in the assay with Herellea vaginicola, the “Microorganism HV (growth inhibition)” value is on record as “+”. Further, the “Microorganism SS (growth inhibition)” value in the assay with Streptococcus Sp is “+”. Moreover, the “Microorganism SA (growth inhibition)” value in the assay on Staphylococcus aureus was “-”. For the same compound, the “Microorganism EC (growth inhibition)” value in the assay on Escherichia coli is given as “+”. Further, in the assay on Mima polymorpha, the “Microorganism MP (growth inhibition)” value is “-”. Besides, in the assay with Pseudmonas aeruginosa, the “Microorganism PA (growth inhibition)” value is listed as “-”.

For `O=C(O)c1cn2c3c(cccc3c1=O)OCC2` [Example 18, 2,3-dihydro-7-oxo-7H-pyrido[1,2,3-de]-1,4-benzoxazine-6-carboxylic acid], in the assay with Bacillus Subtilus, the “Microorganism BS (growth inhibition)” value is given as “+”. Also, in the assay on Herellea vaginicola, the “Microorganism HV (growth inhibition)” value is on record as “-”. In addition, the “Microorganism SS (growth inhibition)” value in the assay on Streptococcus Sp was “-”. Further, the “Microorganism SA (growth inhibition)” value in the assay on Staphylococcus aureus was “-”. The “Microorganism EC (growth inhibition)” value in the assay with Escherichia coli is “-”. Also, the “Microorganism MP (growth inhibition)” value in the assay on Mima polymorpha is on record as “-”. Further, the “Microorganism PA (growth inhibition)” value in the assay with Pseudmonas aeruginosa was “-”.

On to `O=C(O)c1cn2c3c(cc(F)cc3c1=O)OCC2` [Example 43 (acid)], for which the “Microorganism BS (growth inhibition)” value in the assay with Bacillus Subtilus is listed as “+”. For the same compound, the “Microorganism HV (growth inhibition)” value in the assay on Herellea vaginicola is “+”. Moreover, the “Microorganism SS (growth inhibition)” value with Streptococcus Sp is given as “+”. Besides, the “Microorganism SA (growth inhibition)” value in the assay on Staphylococcus aureus is given as “+”. In addition, in the assay with Escherichia coli, the “Microorganism EC (growth inhibition)” value is on record as “+”. Moreover, the “Microorganism MP (growth inhibition)” value with Mima polymorpha is on record as “-”. The “Microorganism PA (growth inhibition)” value in the assay on Pseudmonas aeruginosa is “-”.

For the compound `CC1COc2cc(F)cc3c(=O)c(C(=O)O)cn1c23` (stereo not drawn) [Example 24, 9-fluoro-2,3-dihydro-3-methyl-7-oxo-7H-pyrido[1,2,3-de]-1,4-benzoxazine-6-carboxylic acid], the “Microorganism BS (growth inhibition)” value in the assay with Bacillus Subtilus was “+”. Also, in the assay with Herellea vaginicola, the “Microorganism HV (growth inhibition)” value is given as “+”. Moreover, the “Microorganism SS (growth inhibition)” value in the assay with Streptococcus Sp is on record as “+”. For the same compound, the “Microorganism SA (growth inhibition)” value in the assay with Staphylococcus aureus is given as “+”. For the same compound, the “Microorganism EC (growth inhibition)” value in the assay on Escherichia coli is “+”. In the assay with Mima polymorpha, the “Microorganism MP (growth inhibition)” value was “-”. For the same compound, the “Microorganism PA (growth inhibition)” value in the assay with Pseudmonas aeruginosa is on record as “+”.

Turning to `CC1COc2ccc(Cl)c3c(=O)c(C(=O)O)cn1c23` (stereo not drawn) [Example 17, 8-chloro-2,3-dihydro-3-methyl-7-oxo-7H-pyrido[1,2,3-de]-1,4-benzoxazine-6-carboxylic acid], the “Microorganism BS (growth inhibition)” value in the assay on Bacillus Subtilus is “+”. The “Microorganism HV (growth inhibition)” value with Herellea vaginicola is reported as “+”. For the same compound, the “Microorganism SS (growth inhibition)” value with Streptococcus Sp is on record as “+”. Besides, in the assay on Staphylococcus aureus, the “Microorganism SA (growth inhibition)” value was “-”. In addition, the “Microorganism EC (growth inhibition)” value in the assay with Escherichia coli is “+”. Moreover, the “Microorganism MP (growth inhibition)” value in the assay on Mima polymorpha was “-”. The “Microorganism PA (growth inhibition)” value in the assay with Pseudmonas aeruginosa is “-”.

For the compound `Cc1cc2c3c(c1C)c(=O)c(C(=O)O)cn3C(C)CO2` (stereo not drawn) [Example 40 (acid)], the “Microorganism BS (growth inhibition)” value with Bacillus Subtilus is on record as “+”. The “Microorganism HV (growth inhibition)” value with Herellea vaginicola is recorded as “+”. Also, the “Microorganism SS (growth inhibition)” value in the assay with Streptococcus Sp was “+”. Further, the “Microorganism SA (growth inhibition)” value in the assay with Staphylococcus aureus is “+”. Moreover, the “Microorganism EC (growth inhibition)” value in the assay on Escherichia coli is given as “+”. For the same compound, the “Microorganism MP (growth inhibition)” value in the assay on Mima polymorpha is listed as “+”. Moreover, the “Microorganism PA (growth inhibition)” value with Pseudmonas aeruginosa is recorded as “+”.

For `Cc1cc(Cl)c2c3c1c(=O)c(C(=O)O)cn3C(C)CO2` (stereo not drawn) [Example 37 (acid)], in the assay on Bacillus Subtilus, the “Microorganism BS (growth inhibition)” value is on record as “+”. Besides, in the assay on Herellea vaginicola, the “Microorganism HV (growth inhibition)” value was “+”. The “Microorganism SS (growth inhibition)” value with Streptococcus Sp is listed as “+”. Further, in the assay on Staphylococcus aureus, the “Microorganism SA (growth inhibition)” value is “+”. Besides, the “Microorganism EC (growth inhibition)” value with Escherichia coli was “+”. The “Microorganism MP (growth inhibition)” value in the assay on Mima polymorpha is “+”. In addition, in the assay on Pseudmonas aeruginosa, the “Microorganism PA (growth inhibition)” value is given as “+”.

With `Cc1ccc2c(=O)c(C(=O)O)cn3c2c1OCC3C` (stereo not drawn) [Example 39 (acid)], in the assay with Bacillus Subtilus, the “Microorganism BS (growth inhibition)” value is recorded as “+”. In addition, in the assay on Herellea vaginicola, the “Microorganism HV (growth inhibition)” value is reported as “+”. Further, the “Microorganism SS (growth inhibition)” value in the assay with Streptococcus Sp is listed as “+”. Further, the “Microorganism SA (growth inhibition)” value in the assay with Staphylococcus aureus is given as “-”. Also, the “Microorganism EC (growth inhibition)” value in the assay with Escherichia coli is “+”. Besides, the “Microorganism MP (growth inhibition)” value in the assay on Mima polymorpha was “+”. For the same compound, the “Microorganism PA (growth inhibition)” value in the assay on Pseudmonas aeruginosa is “+”.

On to `Cc1cc(Cl)c2c(=O)c(C(=O)O)cn3c2c1OCC3C` (stereo not drawn) [Example 41 (acid)], for which the “Microorganism BS (growth inhibition)” value in the assay on Bacillus Subtilus was “+”. For the same compound, the “Microorganism HV (growth inhibition)” value in the assay with Herellea vaginicola is reported as “+”. In addition, the “Microorganism SS (growth inhibition)” value in the assay on Streptococcus Sp was “-”. The “Microorganism SA (growth inhibition)” value with Staphylococcus aureus is “+”. Further, the “Microorganism EC (growth inhibition)” value in the assay with Escherichia coli is recorded as “+”. Moreover, in the assay with Mima polymorpha, the “Microorganism MP (growth inhibition)” value is “-”. Further, the “Microorganism PA (growth inhibition)” value in the assay on Pseudmonas aeruginosa is “-”.

Regarding `CCOC(=O)c1cn2c3c(ccc(F)c3c1=O)OCC2C` (stereo not drawn) [Example 5, ethyl 2,3-dihydro-8-fluoro-3-methyl-7-oxo-7H-pyrido[1,2,3-de]-1,4-benzoxazine-6-carboxylate], the “Microorganism BS (growth inhibition)” value with Bacillus Subtilus is recorded as “+”. In addition, in the assay with Herellea vaginicola, the “Microorganism HV (growth inhibition)” value was “+”. Besides, the “Microorganism SS (growth inhibition)” value in the assay with Streptococcus Sp is recorded as “-”. Further, the “Microorganism SA (growth inhibition)” value with Staphylococcus aureus is on record as “-”. Moreover, in the assay with Escherichia coli, the “Microorganism EC (growth inhibition)” value is listed as “+”. The “Microorganism MP (growth inhibition)” value in the assay with Mima polymorpha is recorded as “-”. Further, the “Microorganism PA (growth inhibition)” value in the assay on Pseudmonas aeruginosa is “-”.

On to `Cc1cc(C)c2c(=O)c(C(=O)O)cn3c2c1OCC3C` (stereo not drawn) [Example 42 (acid)], for which the “Microorganism BS (growth inhibition)” value in the assay with Bacillus Subtilus is given as “+”. The “Microorganism HV (growth inhibition)” value in the assay on Herellea vaginicola is listed as “+”. For the same compound, in the assay on Streptococcus Sp, the “Microorganism SS (growth inhibition)” value is listed as “+”. Further, in the assay with Staphylococcus aureus, the “Microorganism SA (growth inhibition)” value is recorded as “+”. In addition, the “Microorganism EC (growth inhibition)” value in the assay with Escherichia coli is given as “+”. In the assay on Mima polymorpha, the “Microorganism MP (growth inhibition)” value was “+”. In addition, the “Microorganism PA (growth inhibition)” value with Pseudmonas aeruginosa is listed as “+”.
